We go through 5 compounds from article PMC6162336, “An Afferent Neuropeptide System Transmits Mechanosensory Signals Triggering Sensitization and Arousal in C. elegans” (Neuron, 2018).

Where no end group is shown, it is not given here.

The target in one test is T1, FRPR-3 (Caenorhabditis elegans, UniProt Q66GU0).
T1 sequence (Q66GU0 1-360): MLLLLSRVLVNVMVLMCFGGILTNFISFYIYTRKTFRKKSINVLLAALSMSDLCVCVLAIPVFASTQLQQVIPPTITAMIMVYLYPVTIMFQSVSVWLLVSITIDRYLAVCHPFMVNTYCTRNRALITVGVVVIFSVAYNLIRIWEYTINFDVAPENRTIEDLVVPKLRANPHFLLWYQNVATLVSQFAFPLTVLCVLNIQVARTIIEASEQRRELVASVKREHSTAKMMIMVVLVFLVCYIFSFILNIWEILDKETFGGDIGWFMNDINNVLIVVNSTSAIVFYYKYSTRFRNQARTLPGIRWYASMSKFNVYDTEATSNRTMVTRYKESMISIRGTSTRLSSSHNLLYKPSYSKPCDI
Description: In vitro GPCR activation assay (aequorin calcium bioluminescence, CHO/mtAEQ/Gα16 cells). It counts as cell-based, C. elegans. Conditions: mammalian cells expressing aequorin and promiscuous Gα16. The method, then:
Cell-based activation assays were performed as described ([Beets et al., 2012]). FRPR-3/C26F1.6 cDNA was cloned into the pcDNA3.1(+) TOPO expression vector (Thermo Fisher Scientific). Receptor activation was studied in Chinese hamster ovary cells (CHO) stably expressing apo-aequorin (mtAEQ) targeted to the mitochondria as well as the human Gα16 subunit. The CHO-K1 cell line (PerkinElmer, ES-000-A2) was used for receptor activation assays. CHO/mtAEQ/Gα16 cells were transiently transfected with the FRPR-3 cDNA construct or the empty pcDNA3.1(+) vector using the Lipofectamine transfection reagent (Thermo Fisher Scientific). Cells expressing the receptor were shifted to 28°C 1 day later, and collected 2 days post-transfection in BSA medium (DMEM/HAM’s F12 with 15 mM HEPES, without phenol red, 0.1% BSA) loaded with 5 μM coelenterazine h (Thermo Fisher Scientific) for 4 h to reconstitute the holo-enzyme aequorin. Cells (25,000 cells/well) were exposed to synthetic peptides in BSA medium, and aequorin bioluminescence was recorded for 30 s on a MicroBeta LumiJet luminometer (PerkinElmer, Waltham Massachusetts) in quadruplicate. For dose-response evaluations, after 30 s of ligand-stimulated calcium measurements, Triton X-100 (0.1%) was added to the well to obtain a measure of the maximum cell Ca^2+ response. BSA medium without peptides was used as a negative control and 1 μM ATP was used to check the functional response of the cells. Cells transfected with the empty vector were used as a negative control (not shown). EC50 values were calculated from dose-response curves, constructed using a nonlinear regression analysis, with sigmoidal dose-response equation (Prism 6.0).

A further test deals with ASH::ChR2 animals. Description: Cross-modal sensitization assay (reversal response to optogenetic ASH activation). Type of test: in vivo, C. elegans. An excerpt: Channelrhodopsin experiments: 1-2 day old well-fed adult animals were used for all experiments. For LED stimulation: for experiments with flp-20 mutant animals, a custom setup was used as described in ([Ezcurra et al., 2011]); for experiments on frpr-3 mutant animals and RNAi transgenic lines, a custom setup was used as in ([Ardiel et al., 2016], [Ardiel et al., 2017]) using 480 nm Luxeon star LEDs with 450 uw/mm^2 power. In contrast to locomotion arousal experiments described above, these experiments used an automated tapper, which produces equivalent speed responses (Figure S1C). […] ATR (R2500 Sigma-Aldrich) was provided to animals by feeding as described in ([Rabinowitch et al., 2016b]). > 20 animals were placed onto the seeded plate and at least 4 plates were assayed per condition and genotype on multiple days for all cross-modal sensitization behavioral experiments. Video recording was started 5 min after the plate was placed on the stage. For animals exposed to a pre-arousing tap, 1 tap was used, followed by a 20 s interval and then a 2 s blue light stimulation. […]
To test if 2-nonanone exposure could sensitize ASH-dependent reversals, 200 μL undiluted nonanone was spread with a pipette around the rim inside the lid of Petri dish. […] For all experiments, reversal length was analyzed using MATLAB ([Ardiel et al., 2017], [Ezcurra et al., 2011], [Ramot et al., 2008]).

Test [1] concerns C. elegans wild-type animals. Put plainly: Locomotion assay after odorant stimuli. It counts as in vivo. Conditions: benzaldehyde 1% in ethanol, 2-nonanone undiluted, dropped in front of the nose.
The test system of a further test is ASH neuron. Put plainly: Nonanone sensitization assay, ASH calcium imaging in microfluidics chip. It counts as in vivo, C. elegans. The conditions noted are these: 5 s nonanone pulse (100%) then 0.5 M glycerol; GCaMP3; n = 9-10. The method, then: In microfluidics chip: Calcium imaging on 1-2 day old adult animals was performed in custom-designed microfluidic devices as described (using mechanical stimulus module from [Cho et al., 2018], [Cho et al., 2017]). These experiments were performed on a Leica DMIRB inverted microscope using a 40x air objective (N.A. 0.75). Video sequences were captured using a Hamamatsu EM-CCD camera with 100 ms exposure time. Simultaneous dual color imaging was performed using a DV2 beamsplitter (Photometrics) containing a GFP(520 nm)/RFP(605 nm) filter set. Excitation light for fluorescent imaging was delivered through a projector system ([Stirman et al., 2011]). […] Videos were recorded for 40-90 s following stimulus delivery. For analysis of calcium transients, fluorescence intensities for each frame were extracted using a custom MATLAB script ([Cho et al., 2018], [Cho et al., 2017]). […] GCaMP3 and RFP intensities were measured as the mean pixel intensity of the 100 brightest pixels in a circular region of interest (ROI) with a 10 pixel radius. […] All quantification is provided as the ratio of GCaMP3 to tagRFP fluorescence intensity. […]

For the compound AVFRM-NH2 [AVFRMa], the “EC50 values for activation of FRPR-3 (in words)” value (“EC50 values for activation” below) at FRPR-3 is recorded as “low nanomolar range”.

`O=Cc1ccccc1` [benzaldehyde]: the “Effect of odorant presence on tap-evoked enhancement of ASH responses” value with ASH::ChR2 animals (1% benzaldehyde in ethanol on lid, tap, 20 s wait, blue light 2 s, n>15) is given as “did not prevent enhancement of ASH responses by tap”.

Regarding `CCCCCCCC(C)=O` [nonanone, 2-nonanone], in test [1], the “Increase in locomotion speed after stimulus” value is reported as “can evoke locomotor arousal”. In addition, the “Enhancement of ASH calcium responses to glycerol by prior odorant exposure” value in the test on ASH neuron was “did not significantly enhance ASH responses to glycerol”. For the same compound, in the test on ASH::ChR2 animals (200 μL undiluted nonanone on lid, blue light 40 s later, n > 7), the “Enhancement of behavioral (reversal) response to optogenetic ASH activation by prior odorant exposure” value is “nor did it enhance behavioral responses to optogenetic activation of ASH”.

Consider AMMRF-NH2 [AMMRFa], for which the “EC50 values for activation” value on FRPR-3 is on record as “low nanomolar range”.

Consider SVFRL-NH2 [SVFRLa], for which the “EC50 values for activation” value at FRPR-3 was “low nanomolar range”.
